How the values were obtained:
[1] = system: RS1-10 minigene (Firefly Luciferase), HEK-293T cells; test: Luciferase induction assay, RS1-10 with splice modulator compounds in HEK-293T cells; assay type: cell-based; conditions: Homo sapiens, 18 hours, n of 3, read-out: Mean fold-induction of luciferase (relative to vehicle control)
[2] = system: RS3-13 minigene (Firefly Luciferase), HEK-293T cells; test: Luciferase induction assay, RS3-13 with splice modulator compounds in HEK-293T cells; assay type: cell-based; conditions: Homo sapiens, 18 hours, n of 3, read-out: Mean fold-induction of luciferase (relative to vehicle control)
RS1-10, NIH-3T3 cells = test: RS1-10 performance in NIH-3T3 cells; assay type: cell-based, mouse; conditions: CMV promoter, 18 hours, FIG. 10B
Experimental: Human cell line HEK-293T cells or NIH-3T3 mouse fibroblast cell line cells were cultured in DMEM+10% FBS, collected after trypsinization, and then dispensed into 96-well plates (cell culture-treated). Each well of the plate was seeded with 1.0×10^5 cells in 100 μL culture medium. After a 1-hour incubation in the tissue culture incubator (5% CO2, 37 degrees C.), plasmid DNA was complexed with a transfection reagent, such as Lipofectamine 3000, and added to respective wells on the plate. Each well received an equivalent of 100 ng of plasmid DNA complexed with 0.15 μL Lipofectamine 3000. Triplicate wells were used for each condition tested in the experiment. The plasmid utilized in the experiments for HEK-293T cells and NIH-3T3 mouse fibroblast cells encoded a CMV promoter upstream of the RS1-10 construct that controlled the expression of a Firefly Luciferase gene followed by a SV40 polyadenylation signal. After a 10-minute incubation at room temperature, either DMSO vehicle or 24 A at specified doses was added to the wells of the plate. Plates were then incubated for 18 hours in a tissue culture incubator. Endpoint analysis was performed by adding 100 uL of a Luciferase substrate, such as Steady-Luc Firefly Luciferase substrate, to each well of the assay plate. […] Finally, the luminescent signal from each well was measured with a plate reader. […]

RS1-10 and RS1-X1 = test: Luminescence of RS1-10 and RS1-X1 in HEK-293T cells; assay type: cell-based, human; conditions: 85 nM, 24 hours, RS1-X1 vs RS1-10, FIG. 8B
Experimental: A plasmid pool that was transfected into HEK-293T cells was treated for 24 hours with splice modulator 24 A at a concentration of 85 nM. RS1-10 was the starting minigene sequence and a variant switch sequence was identified from the switch sequence screen containing a 28 nucleotide intronic deletion compared to the RS1-10 sequence. […]. RS1-10 controlling a firefly luciferase gene or RS1-X1 controlling a firefly luciferase gene were cloned into individual expression plasmids containing a CMV promoter. HEK 293T cells were transfected with either the RS1-10 or RST-XT expression plasmid and were then treated for 24 hours with 85 nM 24 A while incubated in a tissue culture incubator (37° C., 5% CO2). The luminescence was measured as an endpoint analysis by adding 100 μL of a Luciferase substrate, such as Steady-Luc Firefly Luciferase substrate, to each well of the assay plate. The liquid contents of each well was transferred to a 96-well plate, mixed again for 2 min on an orbital shaker, and incubated at room temperature for 5 min. Finally, the luminescent signal from each well was measured with a plate reader (FIG. 8B).

Compound `CCN1CC(c2ccc(-c3ccc(-c4ccc5nn(C)cc5c4)cc3O)nn2)C1` [Compound 24A, 2-[6-(1-ethylazetidin-3-yl)pyridazin-3-yl]-5-(2-methyl-2H-indazol-5-yl)phenol] has a fold induction at 0.1 µM ([1]; RS1-10, 100 nM) of 74.1, a fold induction at 1 µM ([1]; RS1-10, 1,000 nM) of 84 and a fold induction at 0.1 µM ([2]; RS3-13, 100 nM) of 6.27. The fold induction at 1 µM ([2]; RS3-13, 1,000 nM) was 42.4, the fold-induction of luciferase (RS1-10, NIH-3T3 cells) was “increasing fold-induction of luciferase with increasing concentrations of 24 A” and the “luminescence (RLU)” value (RS1-10 and RS1-X1) was “RS1-X1 produced a higher luminescence (RLU) than RS1-10”.

Source: patent US20260327655A1, “SMALL-MOLECULE REGULATED ALTERNATIVE SPLICING” (priority 2023, published 2026)
